# Measurements reported in ChEMBL document CHEMBL1152474, “Synthesis and investigation of anti-inflammatory activity and gastric ulcerogenicity of novel nitric oxide-donating pyrazoline derivatives” (Eur J Med Chem, 2009).
# Legend:
# [1] = tested on: Rattus norvegicus; experiment: Antiinflammatory activity in albino rat assessed as inhibition of carrageenan-induced paw edema at 100 mg/kg, po treated for 30 mins measured after 1 hr of carrageenan challenge; assay type: functional
# [2] = tested on: Rattus norvegicus; experiment: Antiinflammatory activity in albino rat assessed as inhibition of carrageenan-induced paw edema at 100 mg/kg, po treated for 30 mins measured after 2 hrs of carrageenan challenge; assay type: functional
# [3] = tested on: Rattus norvegicus; experiment: Antiinflammatory activity in albino rat assessed as inhibition of carrageenan-induced paw edema at 100 mg/kg, po treated for 30 mins measured after 3 hrs of carrageenan challenge; assay type: functional
# [4] = tested on: Rattus norvegicus; experiment: Gastrotoxicity in albino rat assessed as ulcer index at 100 mg/kg, po after 5 hrs; assay type: toxicity, organism-based; design: dose 100 mg/kg, route oral; conditions: in vivo
# [5] = Induction of NO release per mol of compound in phosphate buffer at pH 7.4 at 100 uM after 1 hr by Griess assay; assay type: physicochemical; conditions: pH 7.4, 1 h
# [6] = Induction of NO release per mol of compound in phosphate buffer at pH 7.4 at 100 uM after 2 hrs by Griess assay; assay type: physicochemical; conditions: pH 7.4, 2 h
# [7] = Induction of NO release per mol of compound in phosphate buffer at pH 7.4 at 100 uM after 3 hrs by Griess assay; assay type: physicochemical; conditions: pH 7.4, 3 h
# [8] = Induction of NO release per mol of compound in phosphate buffer at pH 7.4 at 100 uM after 4 hrs by Griess assay; assay type: physicochemical; conditions: pH 7.4, 4 h
# [9] = Induction of NO release per mol of compound in phosphate buffer at pH 7.4 at 100 uM after 5 hrs by Griess assay; assay type: physicochemical; conditions: pH 7.4, 5 h
# [10] = Induction of NO release per mol of compound in phosphate buffer at pH 7.4 at 100 uM after 6 hrs by Griess assay; assay type: physicochemical; conditions: pH 7.4, 6 h
# [11] = Induction of NO release in phosphate buffer at pH 1 at 100 uM by Griess assay; assay type: physicochemical; conditions: pH 1, 100 µM
# [12] = tested on: Rattus norvegicus; experiment: Reduction in 5-(2-furyl)-4,5-dihydro-3-(3,4-dimethoxyphenyl)-1H-pyrazole-induced ulcer in albino rat at 100 mg/kg, po after 5 hrs; assay type: functional; design: scale not given: the % may be the effect or the level left
# [13] = tested on: Rattus norvegicus; experiment: Reduction in 1-(2-Bromoacetyl)-5-(2-furyl)-4,5-dihydro-3-(3,4-dimethoxyphenyl)-1H-pyrazole-induced ulcer in albino rat at 100 mg/kg, po after 5 hrs; assay type: functional; design: scale not given: the % may be the effect or the level left
# [14] = tested on: Rattus norvegicus; experiment: Reduction in 4,5-Dihydro-5-(2,4-dimethoxyphenyl)-3-(3,4-dimethoxyphenyl)-1H-pyrazole-induced ulcer in albino rat at 100 mg/kg, po after 5 hrs; assay type: functional; design: scale not given: the % may be the effect or the level left
# [15] = tested on: Rattus norvegicus; experiment: Reduction in 1-(2-Bromopropionyl)-4,5-dihydro-5-(2,4-dimethoxyphenyl)-3-(3,4-dimethoxyphenyl)-1H-pyrazole-induced ulcer in albino rat at 100 mg/kg, po after 5 hrs; assay type: functional; design: scale not given: the % may be the effect or the level left
# [16] = tested on: Rattus norvegicus; experiment: Reduction in 1-(2-Bromoacetyl)-4,5-dihydro-5-(2,4-dimethoxyphenyl)-3-(3,4-dimethoxyphenyl)-1H-pyrazole-induced ulcer in albino rat at 100 mg/kg, po after 5 hrs; assay type: functional; design: scale not given: the % may be the effect or the level left
# [17] = tested on: Rattus norvegicus; experiment: Reduction in 1-(2-Bromopropionyl)-5-(2-furyl)-4,5-dihydro-3-(3,4-dimethoxyphenyl)-1H-pyrazole-induced ulcer in albino rat at 100 mg/kg, po after 5 hrs; assay type: functional; design: scale not given: the % may be the effect or the level left
SMILES,inhibition in vivo at 100 mg/kg [1] [%],inhibition in vivo at 100 mg/kg [2] [%],inhibition in vivo at 100 mg/kg [3] [%],UI [4],NO release [5] [mol/mol],NO release [6] [mol/mol],NO release [7] [mol/mol],NO release [8] [mol/mol],NO release [9] [mol/mol],NO release [10] [mol/mol],Activity [11],Activity [12] [%],Activity [13] [%],Activity [14] [%],Activity [15] [%],Activity [16] [%],Activity [17] [%]
COc1ccc(C2=NN(C(=O)C(C)Br)C(c3ccco3)C2)cc1OC (stereo not given),22,36,42,10,–,–,–,–,–,–,–,–,–,–,–,–,–
COc1ccc(C2=NN(C(=O)CBr)C(c3c(Cl)cccc3Cl)C2)cc1OC (stereo not given),48,58,69,3,–,–,–,–,–,–,–,–,–,–,–,–,–
COc1ccc(C2=NN(C(=O)CBr)C(c3c(Cl)cccc3Cl)C2)cc1 (stereo not given),43,49,7,6,–,–,–,–,–,–,–,–,–,–,–,–,–
COc1ccc(C2=NN(C(=O)CO[N+](=O)[O-])C(c3c(Cl)cccc3Cl)C2)cc1OC (stereo not given),40,49,58,4,0.147,0.395,0.516,0.555,0.738,0.625,Not Active,–,–,–,–,–,–
COc1ccc(C2=NN(C(=O)CNc3ccc(/C(C)=N/O)cc3)C(c3ccco3)C2)cc1OC (stereo not given),38,46,46,0,0.118,0.128,0.138,0.167,0.277,0.267,Not Active,96,92,–,–,–,–
COc1ccc2c(c1)c(CC(=O)O)c(C)n2C(=O)c1ccc(Cl)cc1 [INDOMETHACIN],58,67,82,43.5,–,–,–,–,–,–,–,–,–,–,–,–,–
COc1ccc(C2=NN(C(=O)C(C)O[N+](=O)[O-])C(c3c(Cl)cccc3Cl)C2)cc1OC (stereo not given),47,53,55,7,0.123,0.19,0.501,0.255,0.145,0.114,Not Active,–,–,–,–,–,–
COc1ccc(C2=NNC(c3c(Cl)cccc3Cl)C2)cc1OC (stereo not given),26,49,58,3,–,–,–,–,–,–,–,–,–,–,–,–,–
COc1ccc(C2CC(c3ccc(OC)c(OC)c3)=NN2C(=O)C(C)O[N+](=O)[O-])c(OC)c1 (stereo not given),44,61,56,3,0.098,0.16,0.438,0.128,0.065,0.09,Not Active,–,–,57,86,–,–
COc1ccc(C2CC(c3ccc(OC)c(OC)c3)=NN2C(=O)CO[N+](=O)[O-])c(OC)c1 (stereo not given),38,48,58,5,0.329,0.391,0.433,0.523,0.78,0.588,Not Active,–,–,28,–,83,–
COc1ccc(C2=NN(C(=O)CBr)C(c3ccco3)C2)cc1OC (stereo not given),38,46,51,13,–,–,–,–,–,–,Not Active,–,–,–,–,–,–
COc1ccc(C2=NN(C(=O)C(C)Br)C(c3c(Cl)cccc3Cl)C2)cc1OC (stereo not given),51,56,60,10,–,–,–,–,–,–,–,–,–,–,–,–,–
COc1ccc(C2CC(c3ccc(OC)c(OC)c3)=NN2)c(OC)c1 (stereo not given),38,39,42,7,–,–,–,–,–,–,–,–,–,–,–,–,–
COc1ccc(C2=NNC(c3c(Cl)cccc3Cl)C2)cc1 (stereo not given),54,58,60,31,–,–,–,–,–,–,–,–,–,–,–,–,–
COc1ccc(C2CC(c3ccc(OC)c(OC)c3)=NN2C(=O)CBr)c(OC)c1 (stereo not given),53,67,71,30,–,–,–,–,–,–,–,–,–,–,–,–,–
COc1ccc(C2=NN(C(=O)CO[N+](=O)[O-])C(c3ccco3)C2)cc1OC (stereo not given),32,37,43,2,0.126,0.211,0.281,0.483,0.614,0.535,Not Active,92,84,–,–,–,–
COc1ccc(C2CC(c3ccc(OC)c(OC)c3)=NN2C(=O)C(C)Br)c(OC)c1 (stereo not given),58,63,69,23,–,–,–,–,–,–,–,–,–,–,–,–,–
COc1ccc(C2=NN(C(=O)C(C)O[N+](=O)[O-])C(c3ccco3)C2)cc1OC (stereo not given),35,39,42,7,0.078,0.19,0.398,0.2,0.125,0.087,Not Active,73,–,–,–,–,30
COc1ccc(C2=NNC(c3ccco3)C2)cc1OC (stereo not given),45,53,60,26.5,–,–,–,–,–,–,Not Active,–,–,–,–,–,–
COc1ccc(C2CC(c3ccc(OC)c(OC)c3)=NN2C(=O)CNc2ccc(/C(C)=N/O)cc2)c(OC)c1 (stereo not given),27,44,46,2,0.137,0.114,0.148,0.194,0.302,0.268,Not Active,–,–,71,–,93,–
